Test results as given in PubChem BioAssay AID248 (DTP/NCI, 2004).
Values joined by “and” are separate entries in the source; they are usually repeats but may differ in a detail not shown here. Equal entries are not always repeated. Toxic doses and inconclusive results are not listed.

Test system: L1210 leukemia ip in BDF1 mice, survival T/C
Test: NCI In Vivo Anticancer Drug Screen. Data for tumor model L1210 Leukemia (intraperitoneal) in B6D2F1 (BDF1) mice
Conditions: endpoint: mean survival time, higher = longer survival
Outline: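 In this screen, tumor-bearing mice given compound are compared to those given vehicle, and their survival values are reported as a treated-to-control quotient.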

[1] = dose: 100.0 mg/kg/injection, schedule: Q01DX001 (ip), vehicle: carboxymethylcellulose (CMC)
[2] = dose: 100.0 mg/kg/injection, schedule: Q01DX009 (ip), vehicle: Klucel (hydroxypropylcellulose) (HPC)
[3] = dose: 100.0 mg/kg/injection, schedule: Q04DX002 (ip), vehicle: Klucel (hydroxypropylcellulose) (HPC)
[4] = dose: 200.0 mg/kg/injection, schedule: Q01DX001 (ip), vehicle: carboxymethylcellulose (CMC)
[5] = dose: 200.0 mg/kg/injection, schedule: Q01DX009 (ip), vehicle: Klucel (hydroxypropylcellulose) (HPC)
[6] = dose: 200.0 mg/kg/injection, schedule: Q04DX002 (ip), vehicle: Klucel (hydroxypropylcellulose) (HPC)
[7] = dose: 400.0 mg/kg/injection, schedule: Q01DX001 (ip), vehicle: carboxymethylcellulose (CMC)
[8] = dose: 100.0 mg/kg/injection, schedule: Q01DX001 (ip), vehicle: steriod suspending solution
[9] = dose: 200.0 mg/kg/injection, schedule: Q01DX001 (ip), vehicle: steriod suspending solution
[10] = dose: 25.0 mg/kg/injection, schedule: Q01DX005 (ip), vehicle: other
[11] = dose: 50.0 mg/kg/injection, schedule: Q01DX005 (ip), vehicle: other
[12] = dose: 100.0 mg/kg/injection, schedule: Q01DX005 (ip), vehicle: other
[13] = dose: 200.0 mg/kg/injection, schedule: Q01DX005 (ip), vehicle: other
[14] = dose: 400.0 mg/kg/injection, schedule: Q04DX002 (ip), vehicle: Klucel (hydroxypropylcellulose) (HPC)
[15] = dose: 75.0 mg/kg/injection, schedule: Q01DX001 (ip), vehicle: saline
[16] = dose: 100.0 mg/kg/injection, schedule: Q04DX003 (ip), vehicle: Klucel (hydroxypropylcellulose) (HPC)
[17] = dose: 200.0 mg/kg/injection, schedule: Q04DX003 (ip), vehicle: Klucel (hydroxypropylcellulose) (HPC)
[18] = dose: 400.0 mg/kg/injection, schedule: Q01DX009 (ip), vehicle: Klucel (hydroxypropylcellulose) (HPC)
[19] = dose: 100.0 mg/kg/injection, schedule: Q01DX009 (ip), vehicle: saline
[20] = dose: 200.0 mg/kg/injection, schedule: Q01DX009 (ip), vehicle: saline
[21] = dose: 400.0 mg/kg/injection, schedule: Q01DX009 (ip), vehicle: saline
[22] = dose: 50.0 mg/kg/injection, schedule: Q04DX003 (ip), vehicle: saline
[23] = dose: 100.0 mg/kg/injection, schedule: Q04DX003 (ip), vehicle: saline
[24] = dose: 200.0 mg/kg/injection, schedule: Q04DX003 (ip), vehicle: saline
[25] = dose: 400.0 mg/kg/injection, schedule: Q04DX003 (ip), vehicle: saline

Structure (SMILES): CCc1ccc(NC(=O)NCCCl)cc1
- T/C (dose: 50.0 mg/kg/injection, schedule: Q01DX009 (ip), vehicle: Klucel (hydroxypropylcellulose) (HPC)): 89 % of control
- T/C [1]: 87 % of control
- T/C [2]: 89 % of control
- T/C [3]: 105 % of control
- T/C [4]: 106 % of control
- T/C [5]: 92 % of control
- T/C [6]: 113 % of control
- T/C [7]: 106 % of control

Structure (SMILES): Nc1ccc2c(c1)/C(=N/O)c1cc([N+](=O)[O-])ccc1-2
- T/C [1]: 100 % of control
- T/C [4]: 105 % of control
- T/C [7]: 112 % of control

Structure (SMILES): CC1(C)OC2OC(COC(=O)c3ccc([N+](=O)[O-])cc3)C(OC(=O)c3ccc([N+](=O)[O-])cc3)C2O1 (stereo not given)
- T/C [8]: 87 % of control
- T/C [9]: 95 % of control
- T/C (dose: 400.0 mg/kg/injection, schedule: Q01DX001 (ip), vehicle: steriod suspending solution): 104 % of control

Structure (SMILES): Nc1nc(N)c2nonc2n1
- T/C (dose: 12.5 mg/kg/injection, schedule: Q01DX005 (ip), vehicle: other): 97 % of control
- T/C [10]: 90 % of control
- T/C [11]: 92 % of control
- T/C [12]: 89 % of control
- T/C [13]: 92 % of control

Structure (SMILES): CC1CCC2(OC1)OC1CC3C4CCC5CC(=O)CCC5(C)C4CCC3(C)C1C2C (stereo not given)
- T/C [3]: 102 % of control
- T/C [6]: 105 % of control
- T/C [14]: 94 % of control

Structure (SMILES): CC[N+]1(C)CCOCC1
- T/C [15]: 96 % of control and 94 % of control and 107 % of control
- T/C (dose: 150.0 mg/kg/injection, schedule: Q01DX001 (ip), vehicle: saline): 94 % of control and 100 % of control and 98 % of control
- T/C (dose: 300.0 mg/kg/injection, schedule: Q01DX001 (ip), vehicle: saline): 96 % of control and 98 % of control

Structure (SMILES): O=C(c1ccc(O)c(C(=O)O)c1)c1ccc(O)c(C(=O)O)c1
- T/C [1]: 95 % of control
- T/C [4]: 95 % of control
- T/C [7]: 101 % of control

Structure (SMILES): Cc1cc(Cl)ccc1NC(=O)c1cccc(C(=O)Nc2ccc(Cl)cc2C)c1
- T/C [2]: 97 % of control
- T/C [16]: 98 % of control
- T/C [5]: 92 % of control
- T/C [17]: 90 % of control
- T/C [18]: 87 % of control
- T/C (dose: 400.0 mg/kg/injection, schedule: Q04DX003 (ip), vehicle: Klucel (hydroxypropylcellulose) (HPC)): 93 % of control

Structure (SMILES): O=C(Nc1ccc(Nc2ccccc2)cc1)Nc1cccc2ccccc12
- T/C (dose: 100.0 mg/kg/injection, schedule: Q01DX001 (ip), vehicle: Klucel (hydroxypropylcellulose) (HPC)): 97 % of control
- T/C [2]: 100 % of control
- T/C [19]: 100 % of control
- T/C [3]: 98 % of control and 105 % of control
- T/C [16]: 97 % of control
- T/C (dose: 200.0 mg/kg/injection, schedule: Q01DX001 (ip), vehicle: Klucel (hydroxypropylcellulose) (HPC)): 92 % of control
- T/C [5]: 90 % of control
- T/C [20]: 100 % of control
- T/C [6]: 93 % of control and 94 % of control
- T/C [17]: 92 % of control
- T/C (dose: 400.0 mg/kg/injection, schedule: Q01DX001 (ip), vehicle: Klucel (hydroxypropylcellulose) (HPC)): 95 % of control
- T/C [18]: 100 % of control
- T/C [21]: 88 % of control
- T/C [14]: 98 % of control and 102 % of control

Structure (SMILES): O=C(OCC#CCOC(=O)C(Cl)Cl)C(Cl)Cl
- T/C [19]: 107 % of control
- T/C [20]: 91 % of control
- T/C [21]: 94 % of control

Structure (SMILES): CCC1CCC(N)CC1 (stereo not given)
- T/C [15]: 100 % of control

Structure (SMILES): CN(C)C(=O)Nc1cccc(OC(=O)NC2CCCC2)c1
- T/C (dose: 100.0 mg/kg/injection, schedule: Q04DX003 (ip), vehicle: saline with Tween-80): 100 % of control
- T/C (dose: 200.0 mg/kg/injection, schedule: Q04DX003 (ip), vehicle: saline with Tween-80): 95 % of control
- T/C (dose: 400.0 mg/kg/injection, schedule: Q04DX003 (ip), vehicle: saline with Tween-80): 100 % of control

Structure (SMILES): N/N=C/c1cc2ccccc2c2ccccc12
- T/C [3]: 97 % of control
- T/C [6]: 91 % of control
- T/C [14]: 87 % of control

Structure (SMILES): CCN(Cc1ccccc1)C(=O)Nc1ccccc1
- T/C [3]: 101 % of control
- T/C [6]: 93 % of control
- T/C [14]: 97 % of control

Structure (SMILES): CCCCOc1c(Cl)c(Cl)c(O)c(Cl)c1Cl
- T/C (dose: 50.0 mg/kg/injection, schedule: Q01DX009 (ip), vehicle: acetone): 101 % of control
- T/C [22]: 97 % of control
- T/C (dose: 100.0 mg/kg/injection, schedule: Q01DX001 (ip), vehicle: saline): 93 % of control
- T/C (dose: 100.0 mg/kg/injection, schedule: Q01DX009 (ip), vehicle: acetone): 93 % of control
- T/C [23]: 94 % of control
- T/C (dose: 200.0 mg/kg/injection, schedule: Q01DX001 (ip), vehicle: saline): 88 % of control
- T/C [24]: 87 % of control

Structure (SMILES): CC/C(=C/c1ccccc1)C(N)=O
- T/C [8]: 87 % of control
- T/C [9]: 103 % of control

Structure (SMILES): CN(C)CC(=O)O
- T/C [19]: 94 % of control
- T/C [20]: 94 % of control
- T/C [21]: 94 % of control

Structure (SMILES): C[C@]1(O)CC[C@H]2[C@@H]3CCC4=CC(=O)CCC4=C3C=C[C@@]21C
- T/C [2]: 96 % of control
- T/C (dose: 100.0 mg/kg/injection, schedule: Q04DX003 (sc), vehicle: Klucel (hydroxypropylcellulose) (HPC)): 98 % of control
- T/C [5]: 96 % of control
- T/C (dose: 200.0 mg/kg/injection, schedule: Q04DX003 (sc), vehicle: Klucel (hydroxypropylcellulose) (HPC)): 95 % of control
- T/C [18]: 110 % of control
- T/C (dose: 400.0 mg/kg/injection, schedule: Q04DX003 (sc), vehicle: Klucel (hydroxypropylcellulose) (HPC)): 101 % of control

Structure (SMILES): COc1cc(C(=O)Nc2ccccc2F)cc(OC)c1OC
- T/C [2]: 92 % of control
- T/C [5]: 94 % of control
- T/C [18]: 97 % of control

Structure (SMILES): COC1OC(CO)C(O)C(OC)C1OC (stereo not given)
- T/C [23]: 93 % of control
- T/C [24]: 103 % of control
- T/C [25]: 106 % of control

Structure (SMILES): CC1=NC(C)CNC(C)(C)CC(C)=NC(C)CNC(C)(C)C1 (stereo not given)
- T/C (dose: 25.0 mg/kg/injection, schedule: Q04DX002 (ip), vehicle: Klucel (hydroxypropylcellulose) (HPC)): 88 % of control
- T/C (dose: 50.0 mg/kg/injection, schedule: Q04DX002 (ip), vehicle: Klucel (hydroxypropylcellulose) (HPC)): 94 % of control
- T/C [3]: 112 % of control

Structure (SMILES): CSCC(C)O (stereo not given)
- T/C [23]: 109 % of control
- T/C [24]: 115 % of control
- T/C [25]: 109 % of control

Structure (SMILES): O=C(O)c1ccc(N2C(=O)c3ccccc3C2=O)cc1[N+](=O)[O-]
- T/C [19]: 103 % of control
- T/C [23]: 100 % of control
- T/C [20]: 108 % of control
- T/C [24]: 104 % of control
- T/C [21]: 107 % of control
- T/C [25]: 107 % of control

Structure (SMILES): O=[N+]([O-])c1ccc(/C=N/c2nccs2)o1
- T/C (dose: 1.56 mg/kg/injection, schedule: Q01DX009 (ip), vehicle: saline): 88 % of control
- T/C (dose: 3.12 mg/kg/injection, schedule: Q01DX009 (ip), vehicle: saline): 90 % of control
- T/C (dose: 6.25 mg/kg/injection, schedule: Q01DX009 (ip), vehicle: saline): 93 % of control
- T/C (dose: 12.5 mg/kg/injection, schedule: Q01DX009 (ip), vehicle: saline): 103 % of control
- T/C (dose: 25.0 mg/kg/injection, schedule: Q01DX009 (ip), vehicle: saline): 93 % of control
- T/C (dose: 25.0 mg/kg/injection, schedule: Q04DX003 (ip), vehicle: saline): 97 % of control
- T/C [22]: 116 % of control
- T/C [23]: 88 % of control and 91 % of control

Structure (SMILES): CN(Cc1cnc2nc(N)nc(N)c2n1)c1ccc(C(=O)NC(CCC(=O)O)C(=O)O)cc1Cl (stereo not given)
- T/C (dose: 1.25 mg/kg/injection, schedule: Q01DX001 (ip), vehicle: saline): 114 % of control
- T/C (dose: 2.0 mg/kg/injection, schedule: Q01DX015 (ip), vehicle: saline): 291 % of control
- T/C (dose: 2.5 mg/kg/injection, schedule: Q01DX001 (ip), vehicle: saline): 114 % of control
- T/C (dose: 5.0 mg/kg/injection, schedule: Q01DX001 (ip), vehicle: saline): 118 % of control
- T/C (dose: 7.5 mg/kg/injection, schedule: Q01DX015 (ip), vehicle: saline): 166 % of control

Structure (SMILES): COc1ccc(OC)c(/C=C2\SC(=S)N(C3OC(COC(C)=O)C(OC(C)=O)C(OC(C)=O)C3OC(C)=O)C2=O)c1 (stereo not given)
- T/C [10]: 101 % of control
- T/C [11]: 108 % of control
- T/C [12]: 101 % of control
- T/C [13]: 97 % of control
- T/C (dose: 400.0 mg/kg/injection, schedule: Q01DX005 (ip), vehicle: other): 104 % of control
